Data on two compounds can be found in US20070129359A1, “Tetrahydronaphthalene derivatives, processes for their preparation and their use as antiinflammatory agents” (priority 2005, published 2007).

pIC50: −log10 of the molar value.

In assay [1] the target is T1, glucocorticoid receptor (GR) (Homo sapiens, UniProt P04150).
T1 construct: made in house; host or cells: Sf9 cells infected with recombinant baculovirus (cytosol preparation)
T1 sequence (P04150 1-777): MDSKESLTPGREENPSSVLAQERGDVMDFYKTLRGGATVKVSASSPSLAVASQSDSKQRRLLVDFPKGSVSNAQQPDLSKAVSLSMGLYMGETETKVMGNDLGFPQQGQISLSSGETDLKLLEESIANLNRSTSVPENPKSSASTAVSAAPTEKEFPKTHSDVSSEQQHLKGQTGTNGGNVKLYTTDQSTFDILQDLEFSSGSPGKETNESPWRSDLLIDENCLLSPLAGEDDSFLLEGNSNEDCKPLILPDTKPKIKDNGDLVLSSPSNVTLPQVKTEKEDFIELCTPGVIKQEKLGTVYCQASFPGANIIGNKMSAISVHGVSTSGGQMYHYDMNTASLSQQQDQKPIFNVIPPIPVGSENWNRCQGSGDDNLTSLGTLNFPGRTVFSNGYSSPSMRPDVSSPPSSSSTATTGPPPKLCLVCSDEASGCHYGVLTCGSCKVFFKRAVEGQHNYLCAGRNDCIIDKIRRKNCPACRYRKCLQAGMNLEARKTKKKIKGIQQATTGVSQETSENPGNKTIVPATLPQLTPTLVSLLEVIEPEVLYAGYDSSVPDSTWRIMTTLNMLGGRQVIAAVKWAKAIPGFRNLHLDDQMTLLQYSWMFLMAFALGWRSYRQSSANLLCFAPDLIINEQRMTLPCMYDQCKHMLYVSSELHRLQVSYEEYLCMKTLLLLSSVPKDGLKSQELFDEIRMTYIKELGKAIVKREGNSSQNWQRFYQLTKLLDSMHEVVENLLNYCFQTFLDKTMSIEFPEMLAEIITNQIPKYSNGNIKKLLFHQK
Kind of assay: binding to the glucocorticoid receptor (recombinant receptor, Sf9 cytosol). Conditions: cytosol of Sf9 cells, reference [3H]-dexamethasone. The source says: (§1) The binding of the substances to the glucocorticoid receptor (GR) and further steroid hormone receptors (mineral corticoid receptor (MR), progesterone receptor (PR) and androgen receptor (AR)) is examined with the aid of recombinantly prepared receptors. Cytosol preparations of Sf9 cells which had been infected with recombinant baculoviruses which code for the GR are employed for the binding studies. Compared with the reference substance [^3H]-dexamethasone, the substances show a high affinity for the GR.

Assay [2] addresses T2, progesterone receptor (PR) (Homo sapiens, UniProt P06401).
T2 construct: made in house
T2 sequence (P06401 1-933): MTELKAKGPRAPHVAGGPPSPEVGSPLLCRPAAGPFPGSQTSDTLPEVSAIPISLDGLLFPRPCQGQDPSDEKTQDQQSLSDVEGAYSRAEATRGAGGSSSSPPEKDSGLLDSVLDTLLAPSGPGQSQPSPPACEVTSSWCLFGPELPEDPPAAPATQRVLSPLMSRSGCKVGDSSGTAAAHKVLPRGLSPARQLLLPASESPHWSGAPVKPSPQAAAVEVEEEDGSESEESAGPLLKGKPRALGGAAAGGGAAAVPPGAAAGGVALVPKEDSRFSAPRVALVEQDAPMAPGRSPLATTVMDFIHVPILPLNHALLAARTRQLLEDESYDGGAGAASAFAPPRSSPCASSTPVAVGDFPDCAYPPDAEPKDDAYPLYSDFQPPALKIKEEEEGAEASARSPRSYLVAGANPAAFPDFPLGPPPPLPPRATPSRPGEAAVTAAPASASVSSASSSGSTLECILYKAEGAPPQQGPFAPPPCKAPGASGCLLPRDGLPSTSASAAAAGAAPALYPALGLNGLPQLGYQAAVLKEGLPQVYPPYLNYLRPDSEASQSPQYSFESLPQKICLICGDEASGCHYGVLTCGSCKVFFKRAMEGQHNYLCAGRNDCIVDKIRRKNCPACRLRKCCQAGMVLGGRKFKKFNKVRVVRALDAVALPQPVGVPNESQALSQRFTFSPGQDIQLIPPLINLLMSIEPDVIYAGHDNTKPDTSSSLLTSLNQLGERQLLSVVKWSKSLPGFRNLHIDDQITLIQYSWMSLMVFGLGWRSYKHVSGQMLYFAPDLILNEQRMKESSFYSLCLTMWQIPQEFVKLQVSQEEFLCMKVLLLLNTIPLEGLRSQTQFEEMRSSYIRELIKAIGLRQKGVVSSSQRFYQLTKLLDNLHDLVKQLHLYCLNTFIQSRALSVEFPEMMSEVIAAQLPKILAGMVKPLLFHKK
Kind of assay: binding to the progesterone receptor (recombinantly prepared receptor).
Excerpt: as §1

Assay [3] concerns IL-8 secretion in the human THP-1 monocyte cell line. Briefly: inhibition of LPS-induced IL-8 secretion in THP-1 cells (ELISA). Type of assay: cell-based. The protocol: The compounds of the invention of the general formula (I) inhibit the secretion, induced by lipopolysaccharide (LPS), of the cytokine IL-8 in the human THP-1 monocyte cell line. The concentration of the cytokines was determined in the supernatant using a commercially available ELISA kit.
(An ELISA detects its analyte on a solid surface through an enzyme-linked reagent.)

For the compound `CC1(C)C[C@@](O)(C(F)(F)F)[C@H](NC(=O)c2ccc3occc3c2)c2ccc(F)c(O)c21` (relative stereo) [Example 3L, N-(cis-6-fluoro-2,5-dihydroxy-4,4-dimethyl-2-trifluoro-methyl-1,2,3,4-tetrahydronaphthalen-1-yl)benzofuran-5-carboxamide], the results for the pIC50 in assay [1] and in assay [2] were 7.44 and < 6.00, respectively.

Turning to `COc1c(F)ccc2c1C(C)(C)C[C@@](O)(C(F)(F)F)[C@@H]2NC(=O)Nc1ccc2ccccc2c1` [Example 3E], in assay [3] (LPS, ELISA of supernatant, read-out: IC50(ILB) inhibition of LPS-induced IL-8 secretion), the pIC50 is 6.00. The “efficiency with regard to [3H]-dexamethasone as standard” value in assay [3] (LPS-induced IL-8 secretion) is reported as 11%.

As usually defined, the pIC50 is −log10 of the IC50, conventionally taken in molar units.
